From ChEMBL document CHEMBL1151512, “Design and synthesis of new potential photoaffinity labels for mammalian squalene epoxidase” (Bioorg Med Chem Lett, 1997)

System: HepG2
Assay: In vitro cholesterol biosynthesis inhibition in human HepG2 by measuring the extend of cholesterol radiolabeling after incubation with [14C]mevalonate.
Format: functional, cell-based

Q: How did the IC50 turn out when `CCN(CC#Cc1ccccc1)Cc1cccc(OCc2cc(-c3ccsc3)cs2)c1` was run?
A: 70 nM

Q: Which IC50 does the source give for `CCN(CC#Cc1ccc(N=[N+]=[N-])cc1)Cc1cccc(OCc2cc(-c3ccsc3)cs2)c1` here?
A: 2100 nM

Q: How did the IC50 turn out when `CCN(CC#Cc1ccccc1N=[N+]=[N-])Cc1cccc(OCc2cc(-c3ccsc3)cs2)c1` was run?
A: > 100000 nM

Q: Which IC50 does the source give for `CCN(CC#Cc1cccc(N=[N+]=[N-])c1)Cc1cccc(OCc2cc(-c3ccsc3)cs2)c1` here?
A: 540 nM

Q: Which IC50 does the source give for `CCN(C/C=C/C#CC(C)(C)C)Cc1cccc(OC[Si](C)(C)c2ccc(C#N)cc2)c1` here?
A: 60 nM

Q: With `CCN(C/C=C/C#CC(C)(C)C)Cc1cccc(OC[Si](C)(C)c2ccc(N=[N+]=[N-])cc2)c1` as the molecule, how does the IC50 read?
A: 1200 nM
